Data published in ChEMBL document CHEMBL4043168, “The design and SAR of a novel series of 2-aminopyridine based LRRK2 inhibitors” (Bioorg Med Chem Lett, 2017).

Columns and labels:
[1] = Ratio of drug level in mouse brain to plasma at 10 mg/kg, po; format: ADME, organism-based; details: read-out: BPR
[2] = molecular target: Tyrosine-protein kinase ABL1 (Homo sapiens) (UniProt P00519); test: Inhibition of ABL labeling at activation Loop (LMTGDTYTAHAGAKFPIK) in human PBMC at 1 uM
[3] = molecular target: Calcium/calmodulin-dependent protein kinase type II subunit delta (Homo sapiens) (UniProt Q13557); test: Inhibition of CaMK2d labeling at conserved Lys2 (DLKPENLLLASK) in human PBMC at 1 uM
Chain of Calcium/calmodulin-dependent protein kinase type II subunit delta (Homo sapiens) (Q13557 whole entry): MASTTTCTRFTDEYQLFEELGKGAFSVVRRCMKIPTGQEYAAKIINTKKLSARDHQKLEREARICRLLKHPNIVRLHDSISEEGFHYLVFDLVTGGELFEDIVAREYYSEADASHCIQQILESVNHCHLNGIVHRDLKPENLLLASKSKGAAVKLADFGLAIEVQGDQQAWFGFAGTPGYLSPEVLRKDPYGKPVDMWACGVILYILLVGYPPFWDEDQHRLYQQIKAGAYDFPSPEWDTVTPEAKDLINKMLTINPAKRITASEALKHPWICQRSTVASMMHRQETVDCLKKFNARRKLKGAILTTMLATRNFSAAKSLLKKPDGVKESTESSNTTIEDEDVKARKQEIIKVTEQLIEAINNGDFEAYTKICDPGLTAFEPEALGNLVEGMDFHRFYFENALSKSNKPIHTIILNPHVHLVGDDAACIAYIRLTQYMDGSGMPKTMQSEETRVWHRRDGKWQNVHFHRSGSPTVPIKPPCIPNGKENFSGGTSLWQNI

[4] = molecular target: T1, Inhibitor of nuclear factor kappa-B kinase subunit epsilon (Homo sapiens) (UniProt Q14164); test: Inhibition of IKKe conserved Lys2 (DIKPGNIMR) in human PBMC at 1 uM
T1 sequence (whole entry): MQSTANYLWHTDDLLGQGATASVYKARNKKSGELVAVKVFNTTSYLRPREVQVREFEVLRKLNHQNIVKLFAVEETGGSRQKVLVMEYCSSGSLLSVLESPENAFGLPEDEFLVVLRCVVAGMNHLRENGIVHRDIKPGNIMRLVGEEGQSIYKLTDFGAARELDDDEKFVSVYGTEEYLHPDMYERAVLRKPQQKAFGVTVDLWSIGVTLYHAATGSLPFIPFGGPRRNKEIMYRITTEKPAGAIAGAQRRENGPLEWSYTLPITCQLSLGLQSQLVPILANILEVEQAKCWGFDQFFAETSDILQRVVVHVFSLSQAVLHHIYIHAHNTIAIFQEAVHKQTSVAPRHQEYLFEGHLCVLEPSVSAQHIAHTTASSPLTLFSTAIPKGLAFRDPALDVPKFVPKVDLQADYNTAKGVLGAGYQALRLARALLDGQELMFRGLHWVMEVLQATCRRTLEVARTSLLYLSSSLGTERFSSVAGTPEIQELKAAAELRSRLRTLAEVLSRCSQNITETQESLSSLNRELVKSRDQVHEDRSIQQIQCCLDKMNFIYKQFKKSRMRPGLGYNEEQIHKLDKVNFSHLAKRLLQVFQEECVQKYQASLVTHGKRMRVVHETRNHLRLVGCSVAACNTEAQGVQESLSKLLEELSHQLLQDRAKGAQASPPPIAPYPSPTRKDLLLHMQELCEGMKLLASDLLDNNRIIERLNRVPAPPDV

[5] = molecular target: T2, Tyrosine-protein kinase JAK3 (Homo sapiens) (UniProt P52333); test: Inhibition of JAK3 domain2 activation Loop (IADFGLAKLLPLDKDYYVVR) in human PBMC at 1 uM
T2 sequence (whole entry): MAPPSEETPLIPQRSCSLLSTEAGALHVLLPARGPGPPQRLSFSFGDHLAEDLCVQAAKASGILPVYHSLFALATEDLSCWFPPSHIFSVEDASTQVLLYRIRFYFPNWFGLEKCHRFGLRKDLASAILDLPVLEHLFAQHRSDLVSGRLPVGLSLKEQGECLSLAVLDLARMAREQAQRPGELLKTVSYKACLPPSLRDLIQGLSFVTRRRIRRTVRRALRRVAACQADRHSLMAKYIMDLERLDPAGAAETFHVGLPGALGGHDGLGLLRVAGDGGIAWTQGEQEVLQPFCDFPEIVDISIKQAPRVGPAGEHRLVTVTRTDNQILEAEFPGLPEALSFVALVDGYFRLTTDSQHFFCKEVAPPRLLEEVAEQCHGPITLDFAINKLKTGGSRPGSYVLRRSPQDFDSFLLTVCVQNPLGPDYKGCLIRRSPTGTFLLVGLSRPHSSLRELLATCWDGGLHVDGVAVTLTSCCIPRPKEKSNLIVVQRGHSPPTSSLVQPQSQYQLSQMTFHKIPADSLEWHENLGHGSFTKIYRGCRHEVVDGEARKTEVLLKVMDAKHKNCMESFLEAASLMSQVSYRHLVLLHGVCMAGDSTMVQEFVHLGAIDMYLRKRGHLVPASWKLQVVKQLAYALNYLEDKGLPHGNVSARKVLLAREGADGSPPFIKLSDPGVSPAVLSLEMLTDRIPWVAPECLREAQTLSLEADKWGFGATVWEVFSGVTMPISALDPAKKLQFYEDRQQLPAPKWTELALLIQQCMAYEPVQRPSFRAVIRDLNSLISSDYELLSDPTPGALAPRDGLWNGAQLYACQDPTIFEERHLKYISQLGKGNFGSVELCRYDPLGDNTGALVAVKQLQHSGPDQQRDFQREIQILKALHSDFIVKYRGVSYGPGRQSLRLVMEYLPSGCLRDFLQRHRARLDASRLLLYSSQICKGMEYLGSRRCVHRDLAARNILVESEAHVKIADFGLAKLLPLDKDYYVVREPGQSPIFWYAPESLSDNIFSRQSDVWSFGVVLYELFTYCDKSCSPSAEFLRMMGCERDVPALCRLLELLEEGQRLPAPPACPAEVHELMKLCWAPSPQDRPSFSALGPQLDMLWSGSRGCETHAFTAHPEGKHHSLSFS

[6] = molecular target: T3, Serine/threonine-protein kinase 3 (Homo sapiens) (UniProt Q13188); test: Inhibition of MST2 conserved Lys2 (DIKAGNILLNTEGHAK) in human PBMC at 1 uM
T3 sequence (whole entry): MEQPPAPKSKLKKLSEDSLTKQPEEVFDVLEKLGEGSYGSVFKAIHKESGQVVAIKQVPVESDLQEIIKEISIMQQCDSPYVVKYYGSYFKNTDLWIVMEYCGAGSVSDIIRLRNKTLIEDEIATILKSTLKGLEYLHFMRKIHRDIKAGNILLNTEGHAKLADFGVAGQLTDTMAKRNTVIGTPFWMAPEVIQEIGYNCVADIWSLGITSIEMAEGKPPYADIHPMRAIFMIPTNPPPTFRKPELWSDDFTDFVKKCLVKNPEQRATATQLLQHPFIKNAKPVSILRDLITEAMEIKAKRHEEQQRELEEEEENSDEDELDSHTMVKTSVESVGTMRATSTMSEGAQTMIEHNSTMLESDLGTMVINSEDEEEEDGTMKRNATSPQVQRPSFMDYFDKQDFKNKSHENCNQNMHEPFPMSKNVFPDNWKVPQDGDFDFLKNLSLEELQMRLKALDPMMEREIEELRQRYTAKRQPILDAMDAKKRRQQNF

[7] = molecular target: Mitogen-activated protein kinase kinase kinase 11 (Homo sapiens) (UniProt Q16584); test: Inhibition of MLK3 conserved Lys2 (DLKSNNILLLQPIESDDMEHK) in human PBMC at 0.1 uM
Chain of Mitogen-activated protein kinase kinase kinase 11 (Homo sapiens) (Q16584 whole entry, looked up): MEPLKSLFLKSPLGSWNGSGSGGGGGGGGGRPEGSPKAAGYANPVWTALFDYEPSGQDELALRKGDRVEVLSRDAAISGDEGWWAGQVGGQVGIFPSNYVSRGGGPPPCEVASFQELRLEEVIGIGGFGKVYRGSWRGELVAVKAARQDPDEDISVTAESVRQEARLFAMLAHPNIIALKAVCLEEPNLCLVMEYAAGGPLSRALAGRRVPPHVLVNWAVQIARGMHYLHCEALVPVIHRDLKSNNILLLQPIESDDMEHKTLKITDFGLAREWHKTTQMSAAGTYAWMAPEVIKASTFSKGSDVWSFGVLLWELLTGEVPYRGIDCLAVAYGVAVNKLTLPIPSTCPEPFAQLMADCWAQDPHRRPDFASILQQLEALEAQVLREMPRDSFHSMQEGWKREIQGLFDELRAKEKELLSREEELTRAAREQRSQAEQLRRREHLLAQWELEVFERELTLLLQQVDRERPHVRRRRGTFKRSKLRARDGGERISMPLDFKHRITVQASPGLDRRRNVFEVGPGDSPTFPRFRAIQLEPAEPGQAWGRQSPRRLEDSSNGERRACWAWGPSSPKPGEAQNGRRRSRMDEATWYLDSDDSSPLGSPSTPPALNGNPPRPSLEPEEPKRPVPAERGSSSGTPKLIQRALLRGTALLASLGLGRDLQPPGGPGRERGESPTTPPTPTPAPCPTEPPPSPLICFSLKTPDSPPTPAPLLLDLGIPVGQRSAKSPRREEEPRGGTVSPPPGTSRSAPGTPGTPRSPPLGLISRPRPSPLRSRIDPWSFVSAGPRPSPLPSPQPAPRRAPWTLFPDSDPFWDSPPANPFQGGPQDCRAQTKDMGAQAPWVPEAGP

Chain of Tyrosine-protein kinase ABL1 (Homo sapiens) (P00519 whole entry): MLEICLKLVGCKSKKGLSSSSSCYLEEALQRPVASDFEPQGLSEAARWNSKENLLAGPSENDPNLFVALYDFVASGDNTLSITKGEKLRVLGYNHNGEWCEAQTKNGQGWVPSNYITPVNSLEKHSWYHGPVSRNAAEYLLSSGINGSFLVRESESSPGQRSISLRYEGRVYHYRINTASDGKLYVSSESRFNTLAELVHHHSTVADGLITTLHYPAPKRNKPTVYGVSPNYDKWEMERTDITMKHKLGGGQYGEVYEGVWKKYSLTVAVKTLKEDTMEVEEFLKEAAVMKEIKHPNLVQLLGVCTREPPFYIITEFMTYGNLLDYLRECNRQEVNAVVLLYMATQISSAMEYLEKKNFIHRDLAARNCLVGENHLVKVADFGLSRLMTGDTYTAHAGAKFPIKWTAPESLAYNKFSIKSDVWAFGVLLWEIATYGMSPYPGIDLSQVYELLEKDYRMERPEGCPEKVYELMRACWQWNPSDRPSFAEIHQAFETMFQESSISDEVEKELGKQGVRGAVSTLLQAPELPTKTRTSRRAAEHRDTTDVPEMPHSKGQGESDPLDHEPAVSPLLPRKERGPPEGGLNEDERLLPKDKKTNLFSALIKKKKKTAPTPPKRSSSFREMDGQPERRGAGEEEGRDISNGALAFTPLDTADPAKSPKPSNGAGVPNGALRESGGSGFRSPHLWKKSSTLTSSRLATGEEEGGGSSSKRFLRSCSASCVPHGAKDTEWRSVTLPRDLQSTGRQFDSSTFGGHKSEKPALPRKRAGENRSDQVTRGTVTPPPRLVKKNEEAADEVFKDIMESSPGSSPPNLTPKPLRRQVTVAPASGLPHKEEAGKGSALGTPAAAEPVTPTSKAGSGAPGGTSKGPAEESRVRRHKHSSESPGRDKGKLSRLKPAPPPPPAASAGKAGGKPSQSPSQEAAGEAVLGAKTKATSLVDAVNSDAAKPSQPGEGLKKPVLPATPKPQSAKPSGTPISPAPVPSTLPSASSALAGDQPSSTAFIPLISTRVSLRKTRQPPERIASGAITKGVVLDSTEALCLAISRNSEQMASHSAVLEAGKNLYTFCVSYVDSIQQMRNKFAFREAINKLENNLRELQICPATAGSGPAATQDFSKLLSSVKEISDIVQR

CC(C)n1cc(-c2cc(-c3ccc(CN4CCOCC4)cc3)cnc2N)nn1
Kp [1]: 1.3
inhibition [2]: 34.8%
inhibition [3]: -0.4%
inhibition [4]: 11%
inhibition [5]: 7.8%
inhibition [6]: 0%
inhibition [7]: 13.8%
